This is an account of results in patent US6713475B2, “Tricyclic benzodiazepines as vasopressin receptor antagonists” (Ortho-McNeil Pharmaceutical, Inc., priority 1999, dated 2004).

pIC50: −log10 of the molar value. Counter-ions that a name gives are not always drawn.

In data set [1] the target is T1, V2 (Homo sapiens, UniProt P30518). In words: In vitro recombinant vasopressin receptor binding assay (V2 Bdg), displacement of 3H-arginine vasopressin. Also noted: expressed in transfected cells; host or cells: HEK-293. The note with it: for V2 Bdg % inh: 0.1 uM, printed in parentheses in place of IC50; for pIC50: membrane with cloned human V-2 receptor (HEK-293). The essentials:
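Displacement of ³H-vasopressin from membranes of HEK-293 cells bearing cloned human V-2 receptor, incubated with test compound one hour at room temperature. Bound label was collected on PEI-soaked GF/C filters, washed with cold saline/0.05% Tween 20, and counted by scintillation.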
(Displacement assays read how much labelled ligand stays bound in the presence of the test substance.)

Data set [2] concerns the target T2, human V-1 receptor (Homo sapiens, UniProt P37288).
T2 construct: expressed in transfected cells; host or cells: HEK-293
Description: In vitro recombinant vasopressin receptor binding assay (V1 Bdg), displacement of 3H-arginine vasopressin. Particulars: for inhibition at 0.1 µM: read-out: V1 Bdg (% inh, 0.1 uM). The essentials:
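Membranes from HEK-293 cells bearing cloned human V-1 receptor, incubated 1 h at room temperature with 0.65-0.75 nM 3H-arginine-8-vasopressin in pH 7.5 Tris/MgCl2/BSA buffer with protease inhibitors. Filtration onto GF/C, scintillation count. Non-specific binding with 1.25 uM arginine-8-vasopressin.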

Data set [3] has as its target T1, V2. In words: V2 cAMP. It counts as cell-based.

T2 sequence (P37288 whole entry): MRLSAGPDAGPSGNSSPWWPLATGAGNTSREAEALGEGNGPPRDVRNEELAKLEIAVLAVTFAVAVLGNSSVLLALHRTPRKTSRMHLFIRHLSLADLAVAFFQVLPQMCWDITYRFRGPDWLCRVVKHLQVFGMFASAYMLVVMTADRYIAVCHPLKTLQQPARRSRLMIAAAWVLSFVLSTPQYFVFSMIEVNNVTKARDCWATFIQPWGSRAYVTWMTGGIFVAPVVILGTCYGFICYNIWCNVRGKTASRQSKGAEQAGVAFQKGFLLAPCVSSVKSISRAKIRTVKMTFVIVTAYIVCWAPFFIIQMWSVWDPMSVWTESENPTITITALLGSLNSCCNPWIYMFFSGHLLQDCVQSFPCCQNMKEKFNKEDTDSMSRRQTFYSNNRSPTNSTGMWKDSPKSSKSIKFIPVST

For `O=C(Nc1ccc(C(=O)N2C[C@H]3COCCN3Cc3ccccc32)c(Cl)c1)c1ccccc1-c1ccccc1` (as salt: HCl) (hydrate or solvate) [Compound 4, (S)-2-Phenyl-N-[3-chloro-4-(1,3,4,12a-tetrahydro-6H-[1,4]oxazino[4,3-a][1,4]-benzodiazepin-11(12H)-yl-carbonyl)phenyl]benzamide], the melting point (as a rule, the temperature, or range, at which the solid turns liquid) is > 210 °C (dec.).
Compound `O=C(Nc1ccc(C(=O)N2CC3CCCCN3Cc3ccccc32)cc1)c1ccccc1-c1ccccc1` (stereo not drawn) (as salt: HCl) [Compound 1, 10-[4-[[(2-Biphenyl)carbonyl]amino]benzoyl]-10,11-dihydro-5H-piperidino[2,1-c][1,4]benzodiazepine] yielded a melting point of 191 to 193 °C.
The same measure, in the same setting: to `O=C(Nc1ccc(C(=O)N2C[C@H]3CSCCN3Cc3ccccc32)c(Cl)c1)c1ccccc1-c1ccccc1` (as salt: HCl) [Compound 47, (S)-2-Phenyl-N-[3-chloro-4-(1,3,4,12a-tetrahydro-6H-[1,4]thiazino[4,3-a][1,4]-benzodiazepin-11(12H)-yl-carbonyl)phenyl]benzamide] belongs 192 to 197 °C; to `O=C(Nc1ccc(C(=O)N2CC3COCCN3Cc3ccccc32)cc1O)c1ccccc1-c1ccccc1` (racemic) (as salt: HCl) [Compound 22, (RS)-2-Phenyl-N-[2-hydroxy-4-(1,3,4,12a-tetrahydro-6H-[1,4]oxazino[4,3-a][1,4]-benzodiazepin-11(12H)-yl-carbonyl)phenyl]benzamide], 188 to 195 °C (dec.).
Turning to `O=C(Nc1ccc(C(=O)N2CC3COCCN3Cc3ccccc32)c(O)c1)c1ccccc1-c1ccccc1` (racemic) (as salt: HCl) [Compound 23, (RS)-2-Phenyl-N-[3-hydroxy-4-(1,3,4,12a-tetrahydro-6H-[1,4]oxazino[4,3-a][1,4]-benzodiazepin-11(12H)-yl-carbonyl)phenyl]benzamide], the melting point is 185 to 188 °C (dec.).
In turn, `O=C(Nc1ccc(C(=O)N2CC3CSCCN3Cc3cc(F)ccc32)cc1)c1ccccc1-c1ccccc1` (racemic) (as salt: HCl) [Compound 32, (RS)-2-Phenyl-N-[4-(8-fluoro-1,3,4,12a-tetrahydro-6H-[1,4]thiazino[4,3-a][1,4]-benzodiazepin-11(12H)-yl-carbonyl)phenyl]benzamide] had a melting point of 177 to 180 °C.
The compound `O=C(Nc1ccc(C(=O)N2CC3CSCCN3Cc3cc(F)c(F)cc32)cc1)c1ccccc1-c1ccccc1` (racemic) (as salt: HCl) [Compound 35, (RS)-2-Phenyl-N-[4-(8,9-difluoro-1,3,4,12a-tetrahydro-6H-[1,4]thiazino[4,3-a][1,4]-benzodiazepin-11(12H)-yl-carbonyl)phenyl]benzamide] showed a melting point of 194 to 199 °C.
Turning to `Cc1ccc2c(c1)CN1CCSCC1CN2C(=O)c1ccc(NC(=O)c2ccccc2-c2ccccc2)cc1` (racemic) (as salt: HCl) [Compound 36, (RS)-2-Phenyl-N-[4-(8-methyl-1,3,4,12a-tetrahydro-6H-[1,4]thiazino[4,3-a][1,4]-benzodiazepin-11(12H)-yl-carbonyl)phenyl]benzamide], the melting point lay in the range of 191 to 196 °C.
Take `CN1CCN2Cc3ccccc3N(C(=O)c3ccc(NC(=O)c4c(Cl)cccc4Cl)cc3Cl)CC2C1` (racemic) [Compound 98, (RS)-2,6-Dichloro-N-[3-chloro-4-(1,3,4,12a-tetrahydro-2-methyl-6H-[1,4]pyrazino[4,3-a][1,4]-benzodiazepin-11(12H)-yl-carbonyl)phenyl]benzamide]: in data set [1], the “V2 Bdg % inh” value is given as “(12%/0.1 uM)”. In addition, the “V1 Bdg % inh” value in data set [2] (1 uM) is “(26%/1 uM)”.
For `CN1CCN2Cc3ccccc3N(C(=O)c3ccc(NC(=O)c4c(F)cccc4F)cc3Cl)CC2C1` (racemic) [Compound 99, (RS)-2,6-Difluoro-N-[3-chloro-4-(1,3,4,12a-tetrahydro-2-methyl-6H-[1,4]pyrazino[4,3-a][1,4]-benzodiazepin-11(12H)-yl-carbonyl)phenyl]benzamide], the “V2 Bdg % inh” value in data set [1] is “(10%/0.1 uM)”. In addition, the “V1 Bdg % inh” value in data set [2] (1 uM) is “(12%/1 uM)”.
On to `CN1CCN2Cc3ccccc3N(C(=O)c3ccc(NC(=O)c4cc(F)ccc4-c4ccccc4)cc3Cl)CC2C1` (racemic) [Compound 100, (RS)-2-Phenyl-5-fluoro-N-[3-chloro-4-(1,3,4,12a-tetrahydro-2-methyl-6H-[1,4]pyrazino[4,3-a][1,4]-benzodiazepin-11(12H)-yl-carbonyl)phenyl]benzamide], for which, in data set [1], the pIC50 (usually the negative decadic logarithm of the IC50, by convention in mol/L) is 7.43. The inhibition at 0.1 µM in data set [1] (read-out: V2 Bdg % inh) turned out to be 72%. Further, the inhibition at 1 µM in data set [2] (1 uM, read-out: V1 Bdg % inh) amounted to 6%.
For the compound `Cc1c(F)cccc1C(=O)Nc1ccc(C(=O)N2CC3CN(C)CCN3Cc3ccccc32)c(Cl)c1` (racemic) [Compound 102, (RS)-2-Methyl-3-fluoro-N-[3-chloro-4-(1,3,4,12a-tetrahydro-2-methyl-6H-[1,4]pyrazino[4,3-a][1,4]-benzodiazepin-11(12H)-yl-carbonyl)phenyl]benzamide], in data set [1], the “V2 Bdg % inh” value is recorded as “(20%/0.1 uM)”. Besides, the “V1 Bdg % inh” value in data set [2] (1 uM) was “(12%/1 uM)”.
In the case of `O=C(Nc1ccc(C(=O)N2CC3CC=CCN3Cc3ccccc32)cc1)c1ccccc1-c1ccccc1` (stereo not drawn) [Compound 2, 10-[4-[[(2-Biphenyl)carbonyl]amino]benzoyl]-10,11-dihydro-5H-(tetrahydropyridino)[2,1-c][1,4]benzodiazepine], the pIC50 in data set [1] was 7.85; in data set [3], 6.34. Also, the inhibition at 0.1 µM in data set [2] is 29%.
`O=C(Nc1ccc(C(=O)N2C[C@H]3COCCN3Cc3ccccc32)c(Cl)c1)c1ccccc1-c1ccc(O)cc1` [Compound 5, (S)-2-(4-Hydroxyphenyl)-N-[3-chloro-4-(1,3,4,12a-tetrahydro-6H-[1,4]oxazino[4,3-a][1,4]-benzodiazepin-11(12H)-yl-carbonyl)phenyl]benzamide]: the pIC50 in data set [1] was 8.05. For the same compound, the inhibition at 0.1 µM in data set [2] turned out to be 29%.
The matching figures for `O=C(Nc1ccc(C(=O)N2C[C@H]3COCCN3Cc3ccccc32)c(Cl)c1)c1ccccc1-c1cccc(O)c1` [Compound 7, (S)-2-(3-Hydroxyphenyl)-N-[3-chloro-4-(1,3,4,12a-tetrahydro-6H-[1,4]oxazino[4,3-a][1,4]-benzodiazepin-11(12H)-yl-carbonyl)phenyl]benzamide]: 7.96 and 1%.
Consider `O=C(Nc1ccc(C(=O)N2C[C@H]3COCCN3Cc3ccccc32)c(Cl)c1)c1cc(O)ccc1-c1ccccc1` [Compound 8, (S)-2-Phenyl-5-hydroxy-N-[3-chloro-4-(1,3,4,12a-tetrahydro-6H-[1,4]oxazino[4,3-a][1,4]-benzodiazepin-11(12H)-yl-carbonyl)phenyl]benzamide], for which the pIC50 in data set [1] is 7.57. For the same compound, in data set [2], the inhibition at 0.1 µM came to 32%.
`CN(C)c1cc(NC(=O)c2ccccc2-c2ccccc2)ccc1C(=O)N1C[C@H]2CSCCN2Cc2ccccc21` [Compound 46, (S)-2-Phenyl-N-[3-dimethylamino-4-(1,3,4,12a-tetrahydro-6H-[1,4]thiazino[4,3-a][1,4]-benzodiazepin-11(12H)-yl-carbonyl)phenyl]benzamide]: the pIC50 in data set [1] is 7.33. For the same compound, in data set [2], the inhibition at 0.1 µM amounted to 8%.
With “(RS)-2-(2-Fluoro-phenyl)-N-[4-(1,3,4,12a-tetrahydro-6H-[1,4]thiazino[4,3-a][1,4]-benzodiazepin-11(12H)-yl-carbonyl)phenyl]benzamide [Compound 45]”, the “V2 Bdg % inh” value in data set [1] is reported as “(69%/0.1 uM)”. Also, the “V1 Bdg (% inh, 0.1 uM)” value in data set [2] amounted to 15%.
For “(RS)-2-Chloro-5-trifluoromethyl-N-[3-chloro-4-(1,3,4,12a-tetrahydro-6H-[1,4]oxazino[4,3-a][1,4]-benzodiazepin-11(12H)-yl-carbonyl)phenyl]benzamide [Compound 17]”, the “V2 Bdg % inh” value in data set [1] is “(63%/0.1 uM)”. In addition, the “V1 Bdg (% inh, 0.1 uM)” value in data set [2] is reported as 13%.
For “(RS)-2-Methyl-3-chloro-N-[3-chloro-4-(1,3,4,12a-tetrahydro-2-methyl-6H-[1,4]pyrazino[4,3-a][1,4]-benzodiazepin-11(12H)-yl-carbonyl)phenyl]benzamide [Compound 95]”, the “V2 Bdg % inh” value in data set [1] is listed as “(38%/0.1 uM)”. The “V1 Bdg % inh” value in data set [2] (1 uM) is listed as “(10%/1 uM)”.
Consider “(RS)-2-Phenyl-N-[4-(8,9-dimethoxy-1,3,4,12a-tetrahydro-6H-[1,4]thiazino[4,3-a][1,4]-benzodiazepin-11(12H)-yl-carbonyl)phenyl]benzamide [Compound 33]”, for which the “V2 Bdg % inh” value in data set [1] is on record as “(19%/0.1 uM)”. Besides, the “V1 Bdg % inh” value in data set [2] (10 uM) is listed as 6%/10 uM.
In the same order, the values of “(RS)-2-Phenyl-N-[4-(9-chloro-1,3,4,12a-tetrahydro-6H-[1,4]thiazino[4,3-a][1,4]-benzodiazepin-11(12H)-yl-carbonyl)phenyl]benzamide [Compound 34]” are “(41%/0.1 uM)” and 1%/10 uM.
Consider “(RS)-3,5-Dichloro-N-[3-chloro-4-(1,3,4,12a-tetrahydro-6H-[1,4]thiazino[4,3-a][1,4]-benzodiazepin-11(12H)-yl-carbonyl)phenyl]benzamide [Compound 43]”, for which the “V2 Bdg % inh” value in data set [1] is recorded as “(47%/0.1 uM)”. For the same compound, in data set [2], the “V1 Bdg (% inh, 0.1 uM)” value stood at 11%.
On to “(RS)-3,5-Dimethyl-N-[3-chloro-4-(1,3,4,12a-tetrahydro-6H-[1,4]thiazino[4,3-a][1,4]-benzodiazepin-11(12H)-yl-carbonyl)phenyl]benzamide [Compound 41]”, for which, in data set [1], the “V2 Bdg % inh” value was “(38%/0.1 uM)”. Besides, the “V1 Bdg (% inh, 0.1 uM)” value in data set [2] worked out at 5%.
